In patent US20090030037A1, “Sustained Release Formulation and Dosing Schedules of Leukotriene Synthesis Inhibitor for Human Therapy” (deCODE Genetics ehf., priority 2005, published 2009):

Legend:
MPO = experiment: Study DG-031-201: ionomycin-induced MPO release in whole blood ex vivo; set-up: species or system human; details: difference visit 2 to 5; 500 and 750 mg/day vs placebo
Method: Genet. 2004). Apart from FLAP, allele A of the SNP SG12S25 in the LTA4 hydrolase gene, another gene in the LT pathway, is also associated with MI, as described in PCT application no. PCT/US03/32556 and PCT/US04/30582 incorporated by reference.
Patients who met the study eligibility criteria were enrolled and randomized into 3 different dose-level groups: (1) 64 patients on 250 mg/day therapy with DG-031 (250 mg q.d.), vs placebo; (2) 64 patients on 500 mg/day therapy with DG-031 (250 mg b.i.d.) vs placebo; and (3) 63 patients on 750 mg/day therapy with DG-031 (250 mg t.i.d.) vs placebo. […] All patients received 3 tablets per day. Treatment periods, 4 weeks in duration each, were separated by a 2-week washout period. The placebo tablets were identical in shape, color, form and taste to the active tablets except that they contained no active drug ingredients. Treatment with DG-031 or placebo was in addition to the subject's standard care, including all medications and treatment plan as prescribed by the subject's cardiologist prior to enrolment. […]
All data were analyzed according to a pre-established statistical analysis plan (SAP) and by intention-to-treat (ITT). […] The difference between DG-031 and placebo treatment was the primary outcome, assessed separately for each of the biomarkers. […]

[1] = Steady-state DG-031 plasma concentrations and half-life, studies DG-031-201 and DG-031-203; format: in vivo, human; details: humans
From the text: Maintaining the minimum concentration using TIED dosing requires only about 70% of the drug that is required for a BID schedule. TID dosing is a more efficient process in terms of drug utilization when the goal is maintaining concentrations above a minimum threshold. It has the added advantage of reducing a patient's total exposure to the drug.

[2] = Study DG-031-204: creatine kinase; format: in vivo, human; details: 500 mg BID or TID
Method: (§1) An additional single site, open label study was carried out to obtain biomarker and safety data on additional DG-031 doses (i.e., 1000 mg and 1500 mg). This study examined the safety, tolerability and dose-related effects of DG-031 on inflammatory biomarkers including: LTB4, hsCRP, and MPO. A total of 119 patients with a prior history of CAD and MI were randomized to receive either 1000 mg DG-031 (500 mg BID) or 1500 mg DG-031 (500 mg TID) daily for 4-6 weeks. Treatment with DG-031 in addition to the subject's standard care, medication, and treatment, was prescribed by the patient's cardiologist. A majority of the subjects received statin therapy before, during and after the study. Follow-up assessments were performed 2 weeks after the end of study drug administration.
Liver function tests (AST, ALT, GGT) were assessed weekly during study drug administration and two weeks after dosing. […] Serum creatinine (Cr) was measured weekly during study drug administration and two weeks after dosing. In both the 500 mg BID and 500 mg TID treatment groups, mean serum Cr concentrations increased 4-5% relative to baseline levels. At the 2-week follow up visit, mean serum Cr returned to baseline in the cohort treated for 4 weeks, but remained elevated in the group treated for 6 weeks. Creatine kinase (CK) measurements were obtained weekly during study drug administration and two weeks after dosing.

CD40L = experiment: Study DG-031-204: CD40L; format: in vivo, human; details: after 4 weeks
Method: as §1
The biomarkers were analyzed as described in Example 1. Statistical analysis of the data was carried out using a one-sample t-test on change from baseline with a two-sided nominal significance level of 0.050. Biomarker concentrations were log-transformed and a simple last observation carried forward (LOCF) scheme was used to impute missing observations.
CD40L was measured at 2-week intervals. […] After 4 weeks, there was a 22% (p<0.001; n=55) reduction in CD40L in the 500 mg BID group and a 21% (p<0.001; n=57) reduction in the 500 mg TID group. CD40L levels remained suppressed at the 2 week follow up visit.

SMILES: O=C(O)[C@@H](c1ccc(OCc2ccc3ccccc3n2)cc1)C1CCCC1 [DG-031, (R)-(+)-alpha-cyclopentyl-4-(2-quinolinylmethoxy)-Benzeneacetic acid]
- Carry-over effect, MPO in whole blood, corr. for wbc (MPO): 0.01
- Dominant half-life [1]: 2.5 to 3 h
- Mean CK concentrations [2]: No adverse trends
- Reduction in CD40L (CD40L; 500 mg BID): 22%
- Reduction in CD40L (CD40L; 500 mg TID): 21%
